# Several values for one entry are separate records, joined by “and”; a condition that tells them apart may be missing. Equal values may be shown once. Read-outs that look alike come from different tables or passages of the source.
# How the values were obtained:
# AGS cells [1] = experiment: Cell viability, crystal violet staining; conditions: read-out: IC50 concentration (± SD) at 48 h, AGS, 48 h
# Procedure: (§1) Cell viability was assessed using a crystal violet-based staining method. […] The cells (2 × 10^5) were seeded in 24-multiwell dishes in 0.5 mL of complete medium and incubated overnight. […] After 48 h, cells were fixed with 1% glutaraldehyde (20–30 min), washed with distilled water, and stained with 0.1% crystal violet. […] IC50 were calculated by using GraphPad Prism (version 8.0). Nonlinear regression was used to fit the data to the log (inhibitor) versus response (variable slope).
# MKN45 cells [2] = experiment: Cell viability, crystal violet staining; conditions: read-out: IC50 concentration (± SD) at 48 h, 48 h
# Procedure: as §1
# PANC1 cells [3] = experiment: Cell viability, crystal violet staining; conditions: read-out: IC50 concentration (± SD) at 48 h, 48 h
# Procedure: as §1
# CC2509 fibroblasts = experiment: Cell viability, crystal violet staining, non-tumoral cells; conditions: read-out: IC50 concentration (± SD) at 48 h in non-tumoral cell lines; CC2509, 48 h
# Procedure: as §1
# HPDE cells = experiment: as above; conditions: read-out: IC50 concentration (± SD) at 48 h in non-tumoral cell lines
# Procedure: as §1
# AGS cells [4] = experiment: Flow cytometry mitochondrial mass and membrane potential (MitoTracker Green / CMXRos); format: cell-based, human
# Procedure: (§2) We used flow cytometry to study the mitochondrial mass, mitochondrial membrane potential (ΔΨm) and cellular senescence of untreated and treated cells. Cells (5 × 10^4) were seeded in 24-multiwell dishes and cultured overnight. […] Cells were tripsinized, stained with Mitoprobes and resuspended in Flow buffer [1X PBS; 3% Fetal Bovine Serum (v/v); 3 mM EDTA (v/v)] before analysis with a 4-laser Attune NxT Acoustic Cytometer (Thermo Fisher Scientific). For Mitoprobe assays, […] DAPI (Sigma) was used to exclude dead cells. Data were analyzed with FlowJo 9.3 software (Tree Star Inc., Ashland, OR). For mitochondrial mass and ΔΨm measurement, Mitotracker Green (MTGreen, M7514, Invitrogen) and Mitotracker Red CMXRos (CMXROS, M7512, Invitrogen) were used, respectively. Probes were incubated with cells for 30 min at 37 °C at a concentration of 100 nM (MTGreen) and 20 nM (CMXROS), and fluorescence was detected using the filters (Ex488nm/Em530/30) BL1 and (Ex561nm/Em585/16) YL1, respectively. To determine mitochondria functionality, the ratio between ΔΨm (MitoTracker Red CMXRos) versus Mit. Mass (MitoTracker Green) was calculated. The gating strategy used in all the Flow Cytometry experiments is reflected in Fig.S10.
# MKN45 cells [5] = experiment: as above; format: cell-based, human
# Procedure: as §2
# PANC1 cells [6] = experiment: as above; format: cell-based, human
# Procedure: as §2
# AGS cells [7] = experiment: RT-qPCR gene expression (CDKN1A, IL6, MMP1, MAP2K3, SOD1, SOD2, CAT, MKI67, TNFRSF10D); format: cell-based, human
# Procedure: (§3) Total cellular RNA was extracted using Tri-Reagent (Life Technologies), following the manufacturer’s instructions. One μg of total RNA was primed with random primers and cDNA synthesized with an M-MLV reverse transcriptase following the manufacturer’s instructions (Promega). Target genes were amplified using a SYBR Green polymerase chain reaction assay, working with the specific primer sets listed in Table 4.
# (§4) Thermal cycling of the qPCR reaction was initiated with a denaturation step at 95 °C for 10 min. The process consisted of 40 cycles (denaturation at 95 °C for 15 sec, annealing at 60 °C for 30 sec, and elongation at 75 °C for 30 sec). PCR amplifications were carried out in a StepOne Real‐time PCR System (Applied Biosystems, 4376357). Relative mRNA levels were calculated by the delta-Ct method (2-ΔΔCt), where each 1-Ct difference equals a two-fold change in transcript abundance, using GAPDH as an endogenous gene reference. ΔΔCT represents the difference between the mean ΔCT value of the cells tested and the mean ΔCT value of the calibrator, both calculated for the same PCR run.
# MKN45 cells [8] = experiment: as above; format: cell-based, human
# Procedure: as §3, §4
# PANC1 cells [9] = experiment: as above; format: cell-based, human
# Procedure: as §3, §4
# [10] = MKN45, fold change vs C, replicates
# [11] = PANC1, fold change vs C, replicates
# [12] = MKN45, Fig. 3C, replicate values
# [13] = PANC1, Fig. 3C, replicate values
smiles,measurement,setting,value
"[NH2][Pt]([NH2])([Cl])[Cl] [CDDP, cisplatin, reference compound]",IC50,AGS cells [1]; NAC (+) 0.5 mM,22.7 ± 4.03 µM
same,IC50,AGS cells [1]; NAC (-),26.7 ± 2.21 µM
same,IC50,"MKN45 cells [2]; MKN45, NAC (+) 0.5 mM",10.2 ± 1.56 µM
same,IC50,"MKN45 cells [2]; MKN45, NAC (-)",10 µM and 9.45 µM
same,IC50,"PANC1 cells [3]; PANC1, NAC (+) 0.5 mM",9.46 ± 1.29 µM
same,IC50,"PANC1 cells [3]; PANC1, NAC (-)",10 µM and 12.3 µM
same,IC50,CC2509 fibroblasts,25 µM and 23.8 µM
same,IC50,HPDE cells,0.45 ± 0.05 µM
same,Fold change ΔΨm/MM,"AGS cells [4]; IC50 doses 24 h, CMX-ROS/MitoGreen ratio vs untreated 1.0",1.12 and 0.8 and 0.61
same,"Fold change %CMXROS, ΔΨm","AGS cells [4]; fold change vs C, replicates",0.87 and 0.86 and 0.72
same,"Fold change %MTGreen, MM","AGS cells [4]; fold change vs C, replicates",0.78 and 0.73 and 0.76
same,Fold change ΔΨm/MM,"MKN45 cells [5]; MKN45, IC50 doses 24 h, CMX-ROS/MitoGreen ratio vs untreated 1.0",0.77 and 0.76
same,"Fold change %CMXROS, ΔΨm",MKN45 cells [5]; [10],0.72 and 0.71
same,"Fold change %MTGreen, MM",MKN45 cells [5]; [10],0.94 and 0.93
same,Fold change ΔΨm/MM,"PANC1 cells [6]; PANC1, IC50 doses 24 h, CMX-ROS/MitoGreen ratio vs untreated 1.0",0.48 and 0.57 and 0.56
same,"Fold change %CMXROS, ΔΨm",PANC1 cells [6]; [11],1.08 and 1.13
same,"Fold change %MTGreen, MM",PANC1 cells [6]; [11],1.99 and 2.23 and 2.11
same,"CDKN1A, Fold change vs GAPDH","AGS cells [7]; Fig. 3C, replicate values",19.195 fold change and 16.0881 fold change and 22.9019 fold change
same,"IL-6, Fold change vs GAPDH","AGS cells [7]; Fig. 3C, replicate values",0.7415 fold change and 0.5536 fold change and 0.449 fold change
same,"MMP-1, Fold change vs GAPDH","AGS cells [7]; Fig. 3C, replicate values",4.748 fold change and 3.523 fold change and 6.399 fold change
same,Fold change MAP2K3 vs GAPDH,"AGS cells [7]; Fig. 4B, replicate values",3.776 fold change and 3.2606 fold change and 4.374 fold change
same,TNFRSF10D Fold change vs GAPDH,AGS cells [7]; Fig. S4C,10.7682 fold change and 9.829 fold change and 11.7968 fold change
same,CAT (Fold change vs GAPDH),AGS cells [7]; mRNA vs Control = 1,0.4339 Fold change and 0.4032 Fold change and 0.467 Fold change
same,SOD1 (Fold change vs GAPDH),AGS cells [7]; mRNA vs Control = 1,1.248 Fold change and 1.114 Fold change and 1.397 Fold change
same,SOD2 (Fold change vs GAPDH),AGS cells [7]; mRNA vs Control = 1,1.83 Fold change and 1.608 Fold change and 2.083 Fold change
same,MKI67 Fold change vs GAPDH,"MKN45 cells [8]; MKN45, Fig. S4C",0.592 fold change and 0.4427 fold change and 0.7916 fold change
same,TNFRSF10D Fold change vs GAPDH,"MKN45 cells [8]; MKN45, Fig. S4C",0.5932 fold change and 0.4461 fold change and 0.7888 fold change
same,CAT (Fold change vs GAPDH),"MKN45 cells [8]; MKN45, mRNA vs Control = 1",1.496 Fold change and 1.261 Fold change and 1.775 Fold change
same,SOD1 (Fold change vs GAPDH),"MKN45 cells [8]; MKN45, mRNA vs Control = 1",1.684 Fold change and 1.471 Fold change and 1.928 Fold change
same,SOD2 (Fold change vs GAPDH),"MKN45 cells [8]; MKN45, mRNA vs Control = 1",5.8142 Fold change and 4.057 Fold change and 3.7805 Fold change
same,"CDKN1A, Fold change vs GAPDH",MKN45 cells [8]; [12],4.774 fold change and 4.07 fold change and 5.599 fold change
same,"IL-6, Fold change vs GAPDH",MKN45 cells [8]; [12],1.95 fold change and 3.642 fold change and 4.704 fold change
same,"MMP-1, Fold change vs GAPDH",MKN45 cells [8]; [12],3.347 fold change and 2.194 fold change and 5.104 fold change
same,Fold change MAP2K3 vs GAPDH,"MKN45 cells [8]; MKN45, Fig. 4B, replicate values",2.858 fold change and 2.103 fold change and 3.884 fold change
same,MKI67 Fold change vs GAPDH,"PANC1 cells [9]; PANC1, Fig. S4C",0.584 fold change and 0.4541 fold change and 0.7511 fold change
same,TNFRSF10D Fold change vs GAPDH,"PANC1 cells [9]; PANC1, Fig. S4C",2.899 fold change and 2.5476 fold change and 3.299 fold change
same,CAT (Fold change vs GAPDH),"PANC1 cells [9]; PANC1, mRNA vs Control = 1",0.9643 Fold change and 0.7898 Fold change and 1.177 Fold change
same,SOD1 (Fold change vs GAPDH),"PANC1 cells [9]; PANC1, mRNA vs Control = 1",1.201 Fold change and 1.761 Fold change and 1.789 Fold change
same,SOD2 (Fold change vs GAPDH),"PANC1 cells [9]; PANC1, mRNA vs Control = 1",0.4267 Fold change and 0.395 Fold change and 0.4609 Fold change
same,"CDKN1A, Fold change vs GAPDH",PANC1 cells [9]; [13],2.689 fold change and 2.397 fold change and 3.018 fold change
same,"IL-6, Fold change vs GAPDH",PANC1 cells [9]; [13],6.723 fold change and 5.78 fold change and 7.821 fold change
same,"MMP-1, Fold change vs GAPDH",PANC1 cells [9]; [13],3.584 fold change and 2.804 fold change and 4.175 fold change
same,Fold change MAP2K3 vs GAPDH,"PANC1 cells [9]; PANC1, Fig. 4B, replicate values",2.138 fold change and 1.804 fold change and 2.534 fold change

# Source: article PMC10959927, “Platinum iodido drugs show potential anti-tumor activity, affecting cancer cell metabolism and inducing ROS and senescence in gastrointestinal cancer cells” (Communications Biology, 2024)
